# Source: US11357752B2, “Carolacton and derivatives thereof for use in the treatment of cell proliferation disorders” (Helmholtz-Zentrum für Infektionsforschung GmbH, priority 2017, dated 2022)
# Like-named read-outs stand apart in the source and are kept apart here.
# Legend:
# Assay in all cases: CellTiter-Glo luminescent cell viability assay
# Assay type in all cases: cell-based, human
# HCT 116 cells = settings: for IC50: Homo sapiens, HCT-116, 72 h, 72 h, read-out: IC50 inhibition of cancer cell proliferation
# Procedure: (§1) To evaluate the effects of one compound on 7 cell lines with a CellTiter-Glo Luminescent Cell Viability Assay. Cells were treated with compounds for 72 hours at 37° C./5% CO2 incubator. Compound stock concentration was 20 mM, concentrations to be assayed 100\50\15\10.5\0.1\0.05\0.01\0.005 pM. • i) Materials and Reagents
# (§2) a) Cells in log-phase are collected and counted. Cell suspensions are added to each well of 384-w plate at a suitable density. The margin wells are filled with PBS.
# (§3) b) Test compound at various concentrations are added in duplicates
# (§4) c) The cells were incubated for 72 h in 370/5% CO 2 incubator.
# (§5) d) After incubation, CellTiter-Glo® Reagent is added to each test well and shack for 2 minutes on an orbital shaker.
# (§6) e) The plates are shortly centrifuged at 90×g for 30 s and incubated at room temperature for additional 10 minutes to stabilize the luminescent signal.
# (§7) f) Luminescence signals are detected on PHERAstar Plus.
# (§8) g) Data is collected in Microsoft excel forms and analyzed with GraphPad Prism v.6 software. • iii) Data analysis
# (§9) The potential effect of the testing compounds an cell proliferation was calculated by the formula below: Inhibition %=[…]
# (§10) Since hsMTHFD2 is expressed in human mitochondria and overexpressed in many tumor cells we next aimed to evaluate its potential as an anticancer compound. To this end IC50 values for carolacton were determined for six different cancer cell lines as well as HUVEC cells as primary non-tumor cells. The CellTiter-Glo luminescent cell viability assay (Promega) was used on triplicate cultures grown for three days. Each cell line was tested in three independent experiments (performed at different times and by different experimentators): First, using natural carolacton purified from culture supernatants of Sorangium cellulosum and solved in methanol; second, using carolacton synthesized de novo according to Schmidt et al. 2012 and solved in DMSO; and third, using synthetic carolacton synthesized de novo according to Schmidt et al. 2012 and solved in methanol.
# HUVEC cells = settings: for IC50: Homo sapiens, HUVEC
# Procedure: as §1, §2, §3, §4, §5, §6, §7, §8, §9, §10
# NCI-N87 cells = settings: for IC50: Homo sapiens, NCI-N87, 72 h, 72 h, read-out: IC50 inhibition of cancer cell proliferation
# Procedure: as §1, §2, §3, §4, §5, §6, §7, §8, §9, §10
# NK-92 cells = settings: for IC50: Homo sapiens
# Procedure: as §1, §2, §3, §4, §5, §6, §7, §8, §9, §10
# SW626 cells = settings: for IC50: Homo sapiens, SW626, 72 h, 72 h, read-out: IC50 inhibition of cancer cell proliferation
# Procedure: as §1, §2, §3, §4, §5, §6, §7, §8, §9, §10
# THP-1 cells = settings: for IC50: Homo sapiens, THP-1, 72 h, 72 h
# Procedure: as §1, §2, §3, §4, §5, §6, §7, §8, §9, §10
# [1] = HUVEC (primary), natural C, methanol
# [2] = HUVEC (primary), synthetic C, DMSO
# [3] = HUVEC (primary), synthetic C, methanol
smiles,measurement,setting,value
"CO[C@H](CC(=O)O)[C@@H](C)C(=O)[C@H](C)/C=C(\C)[C@H]1OC(=O)[C@H](O)[C@H](O)/C=C/[C@H](C)CCC[C@@H]1C [Carolacton, carolacton]",IC50,"HCT 116 cells; natural C, methanol",530 nM
same,IC50,"HCT 116 cells; synthetic C, DMSO",286 nM
same,IC50,"HCT 116 cells; synthetic C, methanol",521 nM
same,Bottom,"HCT 116 cells; natural C, methanol",−1.927
same,Top,"HCT 116 cells; natural C, methanol",43.89
same,Bottom,"HCT 116 cells; synthetic C, DMSO",−1.609
same,Top,"HCT 116 cells; synthetic C, DMSO",63.98
same,Bottom,"HCT 116 cells; synthetic C, methanol",−2.614
same,Top,"HCT 116 cells; synthetic C, methanol",63.68
same,Bottom,HUVEC cells; [1],−4.548
same,Top,HUVEC cells; [1],=100.0
same,Bottom,HUVEC cells; [2],−7.188
same,Top,HUVEC cells; [2],=100.0
same,Bottom,HUVEC cells; [3],−3.312
same,Top,HUVEC cells; [3],=100.0
same,IC50,"HUVEC cells; 72 h, HUVEC (primary), natural C, methanol, 72 h, read-out: IC50 inhibition of cell proliferation",48300 nM
same,IC50,"HUVEC cells; 72 h, HUVEC (primary), synthetic C, DMSO, 72 h, read-out: IC50 inhibition of cell proliferation",103000 nM
same,IC50,"HUVEC cells; HUVEC cells, read-out: IC50",46400 nM
same,IC50,"NCI-N87 cells; natural C, methanol",225 nM
same,IC50,"NCI-N87 cells; synthetic C, DMSO",> 100000 nM
same,IC50,"NCI-N87 cells; synthetic C, methanol",352 nM
same,Bottom,"NCI-N87 cells; natural C, methanol",11.93
same,Top,"NCI-N87 cells; natural C, methanol",41.34
same,Bottom,"NCI-N87 cells; synthetic C, methanol",6.683
same,Top,"NCI-N87 cells; synthetic C, methanol",23.87
same,IC50,"NK-92 cells; NK92, 72 h, NK-92, natural C, methanol, 72 h, read-out: IC50 inhibition of cancer cell proliferation",39.9 nM
same,IC50,"NK-92 cells; NK92, 72 h, NK-92, synthetic C, DMSO, 72 h, read-out: IC50 inhibition of cancer cell proliferation",> 100000 nM
same,IC50,"NK-92 cells; NK92, 72 h, read-out: IC50 inhibition of cancer cell proliferation, NK-92, synthetic C, methanal, 72 h",36.7 nM
same,IC50,"NK-92 cells; NK92, malignant NK-92 cells, read-out: IC50 inhibition of proliferation",37 to 39 nM
same,Bottom,"NK-92 cells; NK-92, natural C, methanol",−9.96
same,Top,"NK-92 cells; NK-92, natural C, methanol",91.08
same,Bottom,"NK-92 cells; NK-92, synthetic C, methanal",1.208
same,Top,"NK-92 cells; NK-92, synthetic C, methanal",91.05
same,IC50,"SW626 cells; natural C, methanol",365 nM
same,IC50,"SW626 cells; synthetic C, DMSO",908 nM
same,IC50,"SW626 cells; synthetic C, methanol",992 nM
same,Bottom,"SW626 cells; natural C, methanol",1.167
same,Top,"SW626 cells; natural C, methanol",42.81
same,Bottom,"SW626 cells; synthetic C, DMSO",5.588
same,Top,"SW626 cells; synthetic C, DMSO",43.17
same,Bottom,"SW626 cells; synthetic C, methanol",3.62
same,Top,"SW626 cells; synthetic C, methanol",47.2
same,IC50,"THP-1 cells; THP 1, synthetic C, methanol, read-out: IC50 inhibition of cancer cell proliferation",49600 nM
same,IC50,"THP-1 cells; THP-1, natural C, methanol, read-out: IC50 inhibition of cancer cell proliferation",8820 nM
same,IC50,"THP-1 cells; read-out: IC50 inhibition of cancer cell proliferation, THP-1, synthetic C, DMSO",103000 nM
same,Bottom,"THP-1 cells; THP 1, synthetic C, methanol",14.83
same,Top,"THP-1 cells; THP 1, synthetic C, methanol",67.53
same,Bottom,"THP-1 cells; THP-1, natural C, methanol",2.537
same,Top,"THP-1 cells; THP-1, natural C, methanol",75.92
same,Bottom,"THP-1 cells; THP-1, synthetic C, DMSO",−4.341
same,Top,"THP-1 cells; THP-1, synthetic C, DMSO",=100.0
